Experimental data: US20110158980A1, “METHODS TO TREAT AND SCREEN FOR AGENTS TO TREAT OBESITY” (TRUSTEES OF TUFTS COLLEGE, priority 2008, published 2011)

Columns and labels:
[1] = test system: 3T3-L1 adipocytes; assay: Metabolic flux analysis (stoichiometric model) of adipocyte intermediary metabolism; assay type: cell-based; details: day 12 post-induction
Description: (§1) 3T3-L1 preadipocytes were plated onto 24-well plates and expanded in preadipocyte growth medium consisting of DMEM supplemented with calf serum (10% v/v), penicillin and streptomycin. Medium was replenished every other day. Two days post-confluence, the cells were induced to differentiate using an adipogenic cocktail (1 μg/ml insulin, 0.5 mM isobutylmethylxanthine, and 1 μM dexamethasone) added to a basal medium (DMEM with 10% fetal bovine serum and penicillin/streptomycin). After 48 hrs, the first medium was replaced with a second induction medium consisting of the basal adipocyte medium supplemented with only insulin. […] This basal medium was replenished every other day during the remainder of the culture experiments.
A stoichiometric model of adipocyte central carbon metabolism was constructed as described previously (Si Y, Yoon J, Lee K. American journal of physiology 2007; 292:E1637-46). The model consisted of the major pathways of central carbon metabolism (Table 1). Intracellular fluxes were estimated by solving a constrained non-linear optimization problem with stoichiometric and thermodynamic constraints (Nolan R P, Fenley A P, Lee K. Metab Eng 2006; 8:30-45).

[2] = test system: 3T3-L1 adipocytes; assay: Metabolite assays (TG, FFA, glucose, lactate, glycerol) on cell lysates and spent medium; assay type: cell-based; details: 20 mM oxamate, day 12 post-induction
Description: as §1
Metabolite measurements were performed both on cell lysates and spent medium samples as described previously (Si Y, Yoon J, Lee K. American journal of physiology 2007; 292:E1637-46). Cells were lysed in situ with an 0.1% SDS buffer and sonicated. Immediately after collection, the spent medium samples were cleaned of cell debris by a brief centrifugation step. Free glycerol, TG and free fatty acids (FFAs) were measured using enzymatic assay kits (SIGMA™). Glucose and lactate concentrations were measured using the methods of Trinder (Trinder P. J Clin Pathol 1969; 22:158-61) and Loomis (Loomis M E. J Lab Clin Med 1961; 57:966-9), respectively. Amino acids were quantified by HPLC using fluorescence-based detection following pre-column derivatization of primary or secondary amines with 6-aminoquinolyl-N-hydroxysuccinimidyl-carbamate (Cohen S A, De Antonis K M. J Chromatogr A 1994; 661:25-34). All metabolite data were normalized by the corresponding cell sample DNA content, which was determined with a fluorescence-based assay using the Hoechst dye.

SMILES: NC(=O)C(=O)O [oxamate]
- Flux RXN 31 Amino acid metabolism: Pyruvate + NH4+ + NADPH = Alanine ([1]; OXA 20 mM): 0.0 ± 0.0 mmol/g-DNA/2 days
- Flux RXN 32 Amino acid metabolism: Aspartate + NH4+ = Asparagine ([1]; OXA 20 mM): 0.6 ± 0.1 mmol/g-DNA/2 days
- Flux RXN 33 Amino acid metabolism: Aspartate = Oxaloacetate + NH4+ + NADH ([1]; OXA 20 mM): 0.0 ± 0.0 mmol/g-DNA/2 days
- Flux RXN 34 Amino acid metabolism: Cysteine = Pyruvate + NH4+ + NADH ([1]; OXA 20 mM): 0.0 ± 0.0 mmol/g-DNA/2 days
- Flux RXN 35 Amino acid metabolism: Glutamate = 2-Oxoglutarate + NH4+ + NADH ([1]; OXA 20 mM): 0.0 ± 0.0 mmol/g-DNA/2 days
- Flux RXN 36 Amino acid metabolism: Glutamate + NH4+ + ATP = Glutamine ([1]; OXA 20 mM): 8.0 ± 1.0 mmol/g-DNA/2 days
- Flux RXN 37 Amino acid metabolism: Serine + THF = Glycine ([1]; OXA 20 mM): 5.0 ± 0.3 mmol/g-DNA/2 days
- Flux RXN 38 Amino acid metabolism: Histidine + THF = Glutamate + NH4+ ([1]; OXA 20 mM): 4.1 ± 0.5 mmol/g-DNA/2 days
- Flux RXN 39 Amino acid metabolism: Isoleucine + 2 CoA ([1]; OXA 20 mM): 6.1 ± 0.3 mmol/g-DNA/2 days
- Flux RXN 40 Amino acid metabolism: Leucine + CoA + CO2 + ATP ([1]; OXA 20 mM): 6.8 ± 0.3 mmol/g-DNA/2 days
- Flux RXN 41 Amino acid metabolism: Lysine = 2-Oxoadipate + 2 NH4+ + 3 NADH ([1]; OXA 20 mM): 0.0 ± 0.0 mmol/g-DNA/2 days
- Flux RXN 42 Amino acid metabolism: 2-Oxoadipate + CoA ([1]; OXA 20 mM): 0.0 ± 0.0 mmol/g-DNA/2 days
- Flux RXN 43 Amino acid metabolism: Methionine + Serine + ATP + CoA + THF ([1]; OXA 20 mM): 0.0 ± 0.0 mmol/g-DNA/2 days
- Flux RXN 44 Amino acid metabolism: Phenylalanine + O2 + NADH = Tyrosine ([1]; OXA 20 mM): 0.0 ± 0.0 mmol/g-DNA/2 days
- Flux RXN 45 Amino acid metabolism: Glutamate + ATP + 2 NADPH = Proline ([1]; OXA 20 mM): 0.0 ± 0.0 mmol/g-DNA/2 days
- Flux RXN 46 Amino acid metabolism: Serine = Pyruvate + NH4+ ([1]; OXA 20 mM): 0.0 ± 0.0 mmol/g-DNA/2 days
- Flux RXN 47 Amino acid metabolism: Threonine + CoA to Glycine ([1]; OXA 20 mM): 0.0 ± 0.0 mmol/g-DNA/2 days
- Flux RXN 48 Amino acid metabolism: Tryptophan + 3 O2 + NADPH = 2-Oxoadipate + Alanine + CO2 + NH4+ ([1]; OXA 20 mM): 0.0 ± 0.0 mmol/g-DNA/2 days
- Flux RXN 49 Amino acid metabolism: Tyrosine + 2 O2 ([1]; OXA 20 mM): 0.0 ± 0.0 mmol/g-DNA/2 days
- Flux RXN 50 Amino acid metabolism: Valine + CoA ([1]; OXA 20 mM): 3.3 ± 0.2 mmol/g-DNA/2 days
- Flux RXN 51 Plasma exchange: Palmitate ([1]; OXA 20 mM): 1.0 ± 0.1 mmol/g-DNA/2 days
- Flux RXN 52 Plasma exchange: Acetoacetate ([1]; OXA 20 mM): 2.4 ± 1.9 mmol/g-DNA/2 days
- Flux RXN 53 Plasma exchange: Alanine ([1]; OXA 20 mM): 0.0 ± 0.0 mmol/g-DNA/2 days
- Flux RXN 54 Plasma exchange: Aspartate ([1]; OXA 20 mM): 0.6 ± 0.1 mmol/g-DNA/2 days
- Flux RXN 55 Plasma exchange: Cysteine ([1]; OXA 20 mM): 0.0 ± 0.0 mmol/g-DNA/2 days
- Flux RXN 56 Plasma exchange: Glutamate ([1]; OXA 20 mM): 3.9 ± 0.5 mmol/g-DNA/2 days
- Flux RXN 57 Plasma exchange: Glycine ([1]; OXA 20 mM): 5.0 ± 0.3 mmol/g-DNA/2 days
- Flux RXN 58 Plasma exchange: Serine ([1]; OXA 20 mM): 5.0 ± 0.3 mmol/g-DNA/2 days
- Flux RXN 59 Plasma exchange: Tyrosine ([1]; OXA 20 mM): 0.0 ± 0.0 mmol/g-DNA/2 days
- Flux RXN 60 Plasma exchange: O2 (calculated oxygen uptake rate) ([1]; OXA 20 mM): 511.3 ± 67.1 mmol/g-DNA/2 days
- Flux RXN 61 Plasma exchange: CO2 ([1]; OXA 20 mM): 756.9 ± 75.2 mmol/g-DNA/2 days
- Flux RXN 62 Plasma exchange: NH4+ ([1]; OXA 20 mM): 11.7 ± 0.5 mmol/g-DNA/2 days
- Flux RXN 63 Mitochondrial exchange: Pyruvate ([1]; OXA 20 mM): 399.5 ± 40.8 mmol/g-DNA/2 days
- Flux RXN 64 Mitochondrial exchange: Malate in, Citrate out ([1]; OXA 20 mM): 105.3 ± 13.9 mmol/g-DNA/2 days
- Flux RXN 65 Mitochondrial exchange: 2-Oxoglutarate in, Malate out ([1]; OXA 20 mM): 41.6 ± 9.1 mmol/g-DNA/2 days
- Flux RXN 66 Mitochondrial exchange: Pi in, Malate out ([1]; OXA 20 mM): 54.8 ± 20.5 mmol/g-DNA/2 days
- Decrease of PC flux ([1]; oxamate): 41%
- Decrease of citrate transport out of the mitochondria ([1]; oxamate): 44%
- Decrease of de novo fatty acid synthesis ([1]; oxamate): 49%
- Decrease of flux through glycolysis ([1]; oxamate): 17˜26%
- Decrease of flux through the pentose phosphate pathway (PPP) ([1]; oxamate): 82%
- Decrease of pyruvate flux entering the TCA cycle ([1]; oxamate): 21%
- Increase of lipolysis ([1]; oxamate): 131%
- Increase of triglyceride synthesis ([1]; oxamate): 65%
- Reduction of net triglyceride accumulation ([1]; oxamate): 52%
- Glycerol output raised [2]: 1.3 fold
- Reduction of glucose uptake [2]: 20%
- inhibition at 20000 µM ([2]; Mus musculus, 3T3-L1, vs untreated control, read-out: Inhibition of lactate output): 40%
